Measured values from US20030186887A1, “Compounds for detection of infection by chlamydophila abortus” (priority 2000, published 2003).
Where two headings read alike, the source gives them in different places. Ends that are not written are not given here. * marks the point of attachment. Biotin = O=C1N[C@H]2[C@H](CS[C@H]2CCCCC(=O)*)N1

What was measured:
antibodies to C. abortus = experiment: ELISA, serological reactivity of biotinylated peptides against serum dilutions (Tables 1 and 2); assay type: binding, sheep
Description: Application of the peptide mixture is performed as follows:
Two dilutions of standard serum are used.
The data illustrate that the length of compound has a major impact on serological reactivity.
Thus, substitutions within the core epitopes described in this invention are possible without too much loss in compound serological reactivity.

[1] = test system: sera from sheep free of infection with C. abortus
Excerpt: In the Applicant's experience at least two different forms of microtitration plates may be used. One form uses tresyl-activated dextran, which is applied to the polystyrene plate and forms a layer between the plate and the peptide (Gregorius et al., 1995). The commercially available plates (‘Aquabind™’) are produced by M&E, Denmark and marketed in the UK through Labsystems by Life Sciences. […] The second form of plate is one modified by coating with streptavidin. Such plates are commercially available e.g. Labsystems, Pierce and Warriner. […] The preferred microtitration plate types used to bind streptavidin are those modified to provide high protein binding e.g. Dynex Immulon 2, Greiner High Bind. To each well is added streptavidin in 150 μl volumes. The plates are incubated, preferably for 2 hours at 35-37° C., then the contents ejected and the plates washed 3 times with PBS buffer, pH 7.4 (Appendix). The plates are thoroughly dried and stored at 4° C. until required. Application of the peptide mixture is performed as follows:
The stock solutions (1 mg per ml) of the selected peptides are diluted in the same volume of carbonate-bicarbonate buffer, pH 9.6, to their optimum concentration. […] The peptide mixture solution is added in volumes of 150 μl per well. In a ‘controlled’ test, the peptide mixture is added to all wells in even numbered columns, while carbonate-bicarbonate buffer is added to all wells in odd-numbered columns in the same volume per well. In ‘screen’ tests, where control wells are not used for each sample, the peptide mixture is added to all 96 wells on the plate. The plates are incubated, preferably at 4° C. for 4 to 12 hours, then washed 4 times with PBS/Tween buffer (Appendix) and thoroughly dried, preferably for 4 hours in a fan-driven cabinet. The coated plates are placed in watertight bags with a desiccant, and the bags sealed and stored at 4° C. until required.
Two dilutions of standard serum are used. One, employed at a dilution of 1 in 1000, is used to indicate successful performance of the test (‘standard positive’). […] In the kits, the positive and cut-off standards are provided pre-diluted to working strength in a proprietary stabilisation buffer (Dako) which contains a preservative (ProClin 300; Supelco; used at 1 in 2000), and are not diluted further before addition to the test plate.
The test serum samples are diluted 1:100 in Serum Conjugate Diluent (Appendix). The test kits provide a Diluter plate, which has very low protein binding properties. By adding 15 μl of serum to 135 μl of Serum Conjugate Diluent on the Diluter plate, an initial 1 in 10 dilution is achieved. Transfer of 15 μl from the Diluter plate to 135 μl of Serum Conjugate Diluent dispensed into each well in the test plate enables a further dilution to 1 in 100 (from the original sample) on the test plate. […] Dilution of sera can also be performed, if preferred, in bijoux or tubes before their addition in 150 μl volumes to the Test plate.
Test and standard sera are incubated on the Test plate for 15 min at room temperature (˜20° C.), then 30 min at 37° C. Plate contents are then ejected and the plate washed 4 times with PBS/Tween (Appendix) and dried.
A probe to detect the presence of immunoglobulin, to which is conjugated an enzyme (the ‘conjugate’), is then added. Preferably, the probe constitutes Protein G (recombinant form, in which the moiety that binds to albumin has been eliminated; available from Sigma and Calbiochem) conjugated with horse radish peroxidase, but many forms of conjugate are available. These include, as probes, Protein A; and monoclonal or polyclonal antibodies against the immunoglobulins of the species providing the test sample.

[2] = Solubilisation of compounds; assay type: physicochemical; conditions: water
Description: Each peptide is resuspended in the preferred solvent to a concentration of 1 mg per ml. This stock solution is dispensed in 500 μl volume aliquots in 1 ml bottles, labelled and stored at −85° C. or, less preferably, at −20° C.

[3] = PS (Positive Control Serum) 1/1000
[4] = PS (Positive Control Serum) 1/15000
[5] = serum of Animal No. 13, sheep free of infection with C. abortus
[6] = serum of Animal No. 28, sheep free of infection with C. abortus
[7] = serum of Animal No. 36, sheep free of infection with C. abortus
[8] = serum of Animal No. 19, sheep free of infection with C. abortus
[9] = serum of Animal No. 31, sheep free of infection with C. abortus
[10] = serum of Animal No. 37, sheep free of infection with C. abortus
[11] = serum of Animal No. 14, sheep free of infection with C. abortus

## Biotin-KASSAAFNLVGLIVKGSSIAADQ [Compound 2/L]
Antibodies to C. abortus; serum dilution 1/100
  Net Optical Density: 2.629
Antibodies to C. abortus; serum dilution 1/200
  Net Optical Density: 1.885
Antibodies to C. abortus; serum dilution 1/400
  Net Optical Density: 1.107
Antibodies to C. abortus; serum dilution 1/800
  Net Optical Density: 0.544
Antibodies to C. abortus; serum dilution 1/1600
  Net Optical Density: 0.263
Antibodies to C. abortus; serum dilution 1/3200
  Net Optical Density: 0.115
Antibodies to C. abortus; serum dilution 1/6400
  Net Optical Density: 0.056
[1]; [3]
  Net OD [Gross OD - No compound OD]: 1.534
[1]; [4]
  Net OD [Gross OD - No compound OD]: 0.098
[1]; serum of Animal No. 5, sheep free of infection with C. abortus
  Net OD [Gross OD - No compound OD]: 0.285
[1]; [5]
  Net OD [Gross OD - No compound OD]: 0.572
[1]; [6]
  Net OD [Gross OD - No compound OD]: 0.389
[1]; [7]
  Net OD [Gross OD - No compound OD]: 0.128

## Biotin-KKKKKKKGVKGSSIAADQLPN [Compound 2-7]
[1]; [3]
  Net OD [Gross OD - No compound OD]: 1.038
[1]; [4]
  Net OD [Gross OD - No compound OD]: 0.059
[1]; serum of Animal No. 11, sheep free of infection with C. abortus
  Net OD [Gross OD - No compound OD]: 0.607
[1]; [5]
  Net OD [Gross OD - No compound OD]: 0.198
[1]; [8]
  Net OD [Gross OD - No compound OD]: 0.119
[1]; serum of Animal No. 29, sheep free of infection with C. abortus
  Net OD [Gross OD - No compound OD]: 0.144

## Biotin-KTITGKKKKGTAAANYKTPTD [Compound 1-6]
[1]; [3]
  Net OD [Gross OD - No compound OD]: 3.352
[1]; [4]
  Net OD [Gross OD - No compound OD]: 0.354
[1]; [8]
  Net OD [Gross OD - No compound OD]: 1.316
[1]; [6]
  Net OD [Gross OD - No compound OD]: 0.114
[1]; [9]
  Net OD [Gross OD - No compound OD]: 0.636
[1]; [7]
  Net OD [Gross OD - No compound OD]: 0.500
[1]; [10]
  Net OD [Gross OD - No compound OD]: 0.344

## Biotin-KTITGKKVPTGTAAANYKTPT [Compound 1-5]
[1]; [3]
  Net OD [Gross OD - No compound OD]: 3.744
[1]; [4]
  Net OD [Gross OD - No compound OD]: 0.452
[1]; [11]
  Net OD [Gross OD - No compound OD]: 0.978
[1]; [8]
  Net OD [Gross OD - No compound OD]: 0.747
[1]; [6]
  Net OD [Gross OD - No compound OD]: 0.352
[1]; [9]
  Net OD [Gross OD - No compound OD]: 0.423
[1]; [10]
  Net OD [Gross OD - No compound OD]: 0.580

## Biotin-KTITGMGAVPTGTAAANYKT [Compound 1/AX]
[1]; [3]
  Net OD [Gross OD - No compound OD]: 3.690
[1]; [4]
  Net OD [Gross OD - No compound OD]: 0.493
[1]; [11]
  Net OD [Gross OD - No compound OD]: 0.511

## GKGSSIAADQNKGSSIAADQ [Compound #2]
[2]
  solubility: soluble in water

## SGTAAANYKTKGTAAANYKT [Compound #1]
[2]
  solubility: soluble in water
